Reference: DBAASP
Converted amounts (≈) assume the structure as drawn. “And” between values parts separate entries of the source, which are not always exact repeats. Equal values may be shown once.

Columns and labels:
Assay in all cases: ≥ marks a high value that may be exact or a test limit, other limits are often not marked, values filed in µg/mL are converted to µM
[1] = system: Bacillus subtilis
[2] = system: Pseudomonas aeruginosa
[3] = system: Escherichia coli HB101
[4] = system: Salmonella typhimurium
[5] = system: Pseudomonas aeruginosa ATCC 9027
[6] = system: Candida albicans ATCC 36232
[7] = system: Escherichia coli ATCC 2592
[8] = system: Micrococcus luteus ATCC 9341
[9] = system: Staphylococcus aureus 1550
[10] = system: Staphylococcus aureus ATCC 6538
[11] = system: Pseudomonas aeruginosa ATCC 15692
[12] = system: Listeria monocytogenes KCTC 3710
[13] = system: Salmonella typhimurium KCTC 1926
[14] = system: Aspergillus flavus KCTC 6905
[15] = system: Proteus vulgaris KCTC 2433
[16] = system: Aspergillus parasiticus KCTC 6598
[17] = system: Candida albicans KCTC 7270
[18] = system: Escherichia coli ATCC 25922
[19] = system: Bacillus subtilis KCTC 1998
[20] = system: Aspergillus fumigatus KCTC 6145
[21] = system: Aspergillus awamori KCTC 6915
[22] = system: Staphylococcus aureus ATCC 25923
[23] = system: Trichosporon beigelii KCTC 7707
[24] = system: Staphylococcus epidermidis ATCC 12228
[25] = system: Pseudomonas aeruginosa AB93066
[26] = system: Pseudomonas aeruginosa 671973
[27] = system: Staphylococcus aureus ATCC 29213
[28] = system: Acinetobacter baumannii ATCC 19606
[29] = system: Staphylococcus aureus AB208193
[30] = system: Escherichia coli AB94012
[31] = system: Bacillus subtilis AB91021
[32] = system: Bacillus cereus KCTC 1012
[33] = system: Staphylococcus epidermidis AB208187
[34] = system: Staphylococcus aureus AB94004
[35] = system: Micrococcus luteus AB93113
[36] = system: Acinetobacter baumannii KCTC 2508
[37] = system: Salmonella enterica subsp. enterica serovar Typhimurium ATCC 14028
[38] = system: Staphylococcus aureus P1381
[39] = system: Enterococcus faecium
[40] = system: Klebsiella pneumoniae KCTC 2208
[41] = system: Streptococcus agalactiae
[42] = system: Staphylococcus epidermidis AB208188
[43] = system: Staphylococcus aureus P1374
[44] = system: Acinetobacter baumannii
[45] = system: Pseudomonas aeruginosa 3592
[46] = system: Pseudomonas aeruginosa 4007
[47] = system: Pseudomonas aeruginosa 5018
[48] = system: Pseudomonas aeruginosa PA006
[49] = system: Pseudomonas aeruginosa Pa4-SA2
[50] = system: Staphylococcus aureus ATCC 29313
[51] = system: Pseudomonas aeruginosa ATCC 27853
[52] = system: Klebsiella pneumoniae ATCC 700603
[53] = system: Pseudomonas aeruginosa PAO1
[54] = system: Pseudomonas aeruginosa Pa1-SA2

Question: What does the source list for `CC[C@H](C)[C@H](NC(=O)[C@@H](NC(=O)[C@@H]1CCCN1C(=O)[C@@H](NC(=O)[C@@H]1CCCN1C(=O)[C@H](CCCCN)NC(=O)[C@H](CCCCN)NC(=O)[C@H](CO)NC(=O)CN)C(C)C)[C@@H](C)CC)C(=O)N[C@@H](Cc1ccc(O)cc1)C(=O)N[C@H]1CSSC[C@@H](C(=O)N[C@@H](CCC(N)=O)C(=O)N[C@@H](CCCN=C(N)N)C(=O)N[C@@H](CCSC)C(=O)O)NC(=O)[C@H](CCCCN)NC(=O)CNC(=O)[C@H]([C@@H](C)O)NC(=O)[C@H](C)NC(=O)[C@H](C)NC(=O)[C@H](CCCN=C(N)N)NC(=O)[C@H](CCCN=C(N)N)NC(=O)[C@H](CC(N)=O)NC1=O` [GSKKPVPIIYCNRRAATGKCQRM]?
Answer: MIC [1]: 20.8 µM (≈ 53.6 µg/mL); MIC [2]: 7.35 µM (≈ 18.9 µg/mL); MIC [3]: 2.6 µM (≈ 6.7 µg/mL); MIC [4]: 2.6 µM (≈ 6.7 µg/mL)

Question: For `CC(C)[C@H](NC(=O)[C@H](CCCCN)NC(=O)[C@H](CCCCN)NC(=O)[C@H](CCCCN)NC(=O)[C@H](CCCCN)NC(=O)[C@H](CCCCN)NC(=O)[C@@H](NC(=O)[C@@H](NC(=O)[C@@H](N)Cc1ccccc1)C(C)C)C(C)C)C(=O)N[C@@H](Cc1ccccc1)C(=O)O` [FVVKKKKKVF], which MIC [5] is on record?
Answer: Its MIC is > 80 µM.

Question: And the MIC [6]?
Answer: The MIC was ≥ 80 µM.

Question: And the MIC [7]?
Answer: The MIC was ≥ 80 µM.

Question: And the MIC [8]?
Answer: The MIC was ≥ 80 µM.

Question: And the MIC [9]?
Answer: The MIC was ≥ 80 µM.

Question: And the MIC [10]?
Answer: Its MIC is > 80 µM.

Question: What does the source list for `CC[C@H](C)[C@H](NC(=O)[C@H](CCCCN)NC(=O)[C@H](CCCCN)NC(=O)[C@H](C)NC(=O)[C@H](CC(C)C)NC(=O)[C@H](CCCCN)NC(=O)[C@H](CCCCN)NC(=O)[C@H](CC(C)C)NC(=O)[C@H](CCCN=C(N)N)NC(=O)[C@H](CCCCN)NC(=O)[C@H](C)N)C(=O)N[C@@H](Cc1c[nH]c2ccccc12)C(=O)N[C@@H](CCCCN)C(=O)N[C@@H](Cc1c[nH]c2ccccc12)C(=O)N[C@@H](CC(C)C)C(N)=O` [AKRLKKLAKKIWKWL]?
Answer: MIC [11]: ≥ 32 µM; MIC [12]: 16 µM (≈ 30.6 µg/mL); MIC [13]: 8 µM (≈ 15.3 µg/mL); MIC [14]: ≥ 64 µM; MIC [15]: 11.3 µM (≈ 21.6 µg/mL); MIC [16]: 16 µM (≈ 30.6 µg/mL); MIC [17]: 16 µM (≈ 30.6 µg/mL); MIC [18]: 32 µM (≈ 61.1 µg/mL); MIC [19]: 8 µM (≈ 15.3 µg/mL); MIC [20]: 16 µM (≈ 30.6 µg/mL); MIC [21]: ≥ 64 µM; MIC [22]: 16 µM (≈ 30.6 µg/mL); MIC [23]: ≥ 128 µM; MIC [24]: 8 µM (≈ 15.3 µg/mL)

Question: How did the MIC [25] turn out when `CC[C@H](C)[C@H](NC(=O)CN)C(=O)N[C@@H](CC(C)C)C(=O)NCC(=O)N[C@@H](CCCCN)C(=O)N[C@@H](CC(C)C)C(=O)N[C@@H](Cc1c[nH]c2ccccc12)C(=O)N[C@@H](CCC(=O)O)C(=O)NCC(=O)N[C@H](C(=O)N[C@@H](CCCCN)C(=O)N[C@@H](CO)C(=O)N[C@H](C(=O)N[C@@H](Cc1ccccc1)C(N)=O)[C@@H](C)CC)C(C)C` [GILGKLWEGVKSIF] was run?
Answer: Its MIC is ≥ 64.6 µM.

Question: What about the MIC [26] of the same compound?
Answer: The MIC was 3.13 µM (≈ 4.84 µg/mL).

Question: And the MIC [12]?
Answer: The MIC was 3.13 µM (≈ 4.84 µg/mL).

Question: And the MIC [27]?
Answer: The MIC was 6.25 µM (≈ 9.66 µg/mL).

Question: And the MIC [5]?
Answer: The MIC was > 64.6 µM.

Question: What about the MIC [28] of the same compound?
Answer: Its MIC is 3.23 µM (≈ 5 µg/mL).

Question: And the MIC [29]?
Answer: Its MIC is 8.08 µM (≈ 12.5 µg/mL).

Question: And the MIC [30]?
Answer: Its MIC is ≥ 64.6 µM.

Question: What about the MIC [31] of the same compound?
Answer: The MIC was 8.08 µM (≈ 12.5 µg/mL).

Question: And the MIC [32]?
Answer: The MIC was 12.5 µM (≈ 19.3 µg/mL).

Question: And the MIC [33]?
Answer: Its MIC is 16.2 µM (≈ 25 µg/mL).

Question: What about the MIC [34] of the same compound?
Answer: The MIC was 8.08 µM (≈ 12.5 µg/mL).

Question: What about the MIC [35] of the same compound?
Answer: The MIC was 8.08 µM (≈ 12.5 µg/mL).

Question: What about the MIC [36] of the same compound?
Answer: The MIC was 3.13 µM and 6.25 µM.

Question: And the MIC [37]?
Answer: Its MIC is 3.13 µM (≈ 4.84 µg/mL).

Question: What about the MIC [38] of the same compound?
Answer: The MIC was 8.08 µM (≈ 12.5 µg/mL).

Question: What about the MIC [39] of the same compound?
Answer: Its MIC is 8.08 µM (≈ 12.5 µg/mL).

Question: What about the MIC [40] of the same compound?
Answer: The MIC was 12.5 µM (≈ 19.3 µg/mL).

Question: What about the MIC [41] of the same compound?
Answer: The MIC was 16.2 µM (≈ 25 µg/mL).

Question: And the MIC [42]?
Answer: The MIC was 16.2 µM (≈ 25 µg/mL).

Question: What about the MIC [43] of the same compound?
Answer: The MIC was 16.2 µM (≈ 25 µg/mL).

Question: And the MIC [44]?
Answer: Its MIC is 4.14 µM and 3.13 µM and 6.25 µM.

Question: What about the MIC [22] of the same compound?
Answer: The MIC was 4.04 µM and 3.13 µM.

Question: And the MIC [10]?
Answer: The MIC was 8.08 µM (≈ 12.5 µg/mL).

Question: What about the MIC [45] of the same compound?
Answer: Its MIC is 6.25 µM (≈ 9.66 µg/mL).

Question: And the MIC [46]?
Answer: Its MIC is 25 µM (≈ 38.6 µg/mL).

Question: And the MIC [47]?
Answer: The MIC was 12.5 µM (≈ 19.3 µg/mL).

Question: For `CC[C@H](C)[C@H](NC(=O)[C@H](CCCCN)NC(=O)CNC(=O)[C@H](CCSC)NC(=O)[C@H](C)NC(=O)[C@H](Cc1cnc[nH]1)NC(=O)[C@H](C)NC(=O)[C@@H](NC(=O)[C@H](CC(C)C)NC(=O)[C@H](CCC(N)=O)NC(=O)[C@H](CCCCN)NC(=O)CNC(=O)[C@H](C)NC(=O)CNC(=O)[C@H](CCCCN)NC(=O)[C@@H](NC(=O)[C@@H](NC(=O)[C@H](CC(=O)O)NC(=O)[C@H](Cc1ccccc1)NC(=O)[C@@H](NC(=O)CN)C(C)C)[C@@H](C)CC)[C@@H](C)CC)[C@@H](C)CC)C(=O)N[C@@H](C)C(=O)N[C@@H](CCC(=O)O)C(=O)N[C@@H](CCCCN)C(=O)N[C@H](C(N)=O)C(C)C` [GVFDIIKGAGKQLIAHAMGKIAEKV], which MIC [48] is on record?
Answer: The MIC was 6.17 µM (≈ 16 µg/mL).

Question: And the MIC [49]?
Answer: Its MIC is ≥ 98.6 µM.

Question: And the MIC [50]?
Answer: Its MIC is ≥ 308 µM.

Question: What about the MIC [51] of the same compound?
Answer: Its MIC is > 197 µM.

Question: What about the MIC [37] of the same compound?
Answer: The MIC was 308 µM (≈ 800 µg/mL).

Question: And the MIC [18]?
Answer: Its MIC is 77.1 µM (≈ 200 µg/mL).

Question: What about the MIC [52] of the same compound?
Answer: Its MIC is 308 µM (≈ 800 µg/mL).

Question: What about the MIC [53] of the same compound?
Answer: Its MIC is 197 µM (≈ 512 µg/mL).

Question: What about the MIC [54] of the same compound?
Answer: Its MIC is ≥ 197 µM.
